Like-named read-outs stand apart in the source and are kept apart here.

One series has as its system Neisseria gonorrhoeae. Further details: method as in PMID 33765392, PMID 34894972. To be noted: treatment with CA inhibitor; no apparent development of resistance; ref [35],[36]; cited from earlier work.
Another series has as its target psCA1. As to conditions: read-out: KI psCA1; 20 °C, 10 mM Tris buffer, 20 mM NaClO4 pH 8.3; ref [52]; cited from earlier work.
The target of series [1] is PaCAγ1 (Pseudomonas aeruginosa, UniProt Q9HT34). As to the kind of experiment: biochemical. To be noted: Stopped-Flow assay, mean from 3 different assays.
The target of the next series is hCA I (Homo sapiens, UniProt P00915). The experiment in a line: Stopped-flow CO2 hydration inhibition assay, hCA I. The class given is biochemical.
Series [2] has as its system PaCAγ1. As to the kind of experiment: biochemical. To be noted: Selectivity Index, ratio of KI.
A further series concerns the target hCA II (Homo sapiens, UniProt P00918). The experiment in a line: Stopped-flow CO2 hydration inhibition assay, hCA II. The class given is biochemical. As to conditions: mean from 3 different assays, errors ±5–10 %.
The next series relates to Helicobacter pylori. To be noted: without triggering resistance; ref [37]; cited from earlier work.
Series [3] concerns the molecule itself. The experiment in a line: SEC-MALS; SEC-MALS-QELS; 700 μg of purified protein loaded on the SEC s75 column, 20 mM TRIS, 150 mM NaCl, pH 8.5, flow rate 0.5 mL/min. Background: In gel filtration, larger molecules generally elute earlier.
The mark [4] stands for this setting: Stopped-Flow assay, mean from 3 different assays, errors ±5–10 %, read-out: KI hCA I.

Sequence of hCA I (P00915 whole entry): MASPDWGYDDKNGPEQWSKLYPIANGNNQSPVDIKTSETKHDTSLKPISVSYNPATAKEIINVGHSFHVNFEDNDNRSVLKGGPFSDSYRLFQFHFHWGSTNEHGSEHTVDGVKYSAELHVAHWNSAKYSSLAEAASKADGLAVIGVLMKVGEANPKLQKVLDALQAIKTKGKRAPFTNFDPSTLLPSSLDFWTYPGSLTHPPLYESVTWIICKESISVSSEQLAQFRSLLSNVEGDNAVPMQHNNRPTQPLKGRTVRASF

With `CC(=O)Nc1nnc(S(N)(=O)=O)s1` [AAZ, acetazolamide], the “effect on N. gonorrhoeae” value with Neisseria gonorrhoeae is “long-lasting bacteriostatic effects”.
By Ki is commonly meant the equilibrium dissociation constant of an inhibitor or competing ligand from its target. As to `Nc1cccc(S(N)(=O)=O)c1` [ABS, 3-amino-benzene suldonamide], the Ki at psCA1 is 19 nM.
`CCN[C@H]1CN(CCCOC)S(=O)(=O)c2sc(S(N)(=O)=O)cc21` [BRZ]: the affinity at PaCAγ1 [1] corresponds to a Ki of 307 ± 13.1 nM.
On the same count and under the same terms, as for `NS(=O)(=O)c1nnc(NS(=O)(=O)c2ccccc2)s1` [BZA], the figure is 290 ± 14.4 nM; as for `Nc1cccc(S(N)(=O)=O)c1` [Compound 1], 189 ± 7.11 nM.
Still for that read-out and setting: for `Nc1ccc(S(N)(=O)=O)cc1` [Compound 2] the value was 155 ± 5.23 nM; for `NCc1ccc(S(N)(=O)=O)cc1` [Compound 3], 132 ± 8.86 nM.
On to `NS(=O)(=O)c1cccc(S(N)(=O)=O)c1` [Compound 5], for which the Ki is 561 ± 32.4 nM on PaCAγ1 [1] and 25000 nM at hCA I (setting [4]).
For the molecule `Cc1ccc(S(N)(=O)=O)cc1` [Compound 6], the Ki at PaCAγ1 [1] came to 266 ± 14.2 nM; at hCA I, 21000 nM.
In turn, `Nc1ccc(S(N)(=O)=O)cc1F` [Compound 7] yielded a Ki at PaCAγ1 [1] of 325 ± 13.8 nM.
At PaCAγ1 [1], `Nc1ccc(S(N)(=O)=O)cc1Cl` [Compound 8] had a Ki of 697 ± 44.7 nM.
The same measure, in the same setting: for `Nc1ccc(S(N)(=O)=O)cc1Br` [Compound 9] the value was 3490 nM.
The molecule `NS(=O)(=O)c1cc(Cl)cc(Cl)c1O` [Compound 10] returned a Ki on PaCAγ1 [1] of 9670 nM.
The same measure, in the same setting: for `Nc1cc(C(F)(F)F)c(S(N)(=O)=O)cc1S(N)(=O)=O` [Compound 11] the value was 3670 nM; for `Nc1cc(Cl)c(S(N)(=O)=O)cc1S(N)(=O)=O` [Compound 12], 6090 nM; for `Nc1nnc(S(N)(=O)=O)s1` [Compound 13], 72.6 ± 3.43 nM.
Consider `Cn1nc(S(N)(=O)=O)sc1=N` [Compound 14], for which the affinity at PaCAγ1 [1] corresponds to a Ki of 97.1 ± 5.32 nM.
On the same count and under the same terms, as for `NS(=O)(=O)c1ccc(O)cc1` [Compound 15], the figure is 209 ± 9.19 nM.
The same measure, in the same setting: as for `NS(=O)(=O)c1ccc(CO)cc1` [Compound 16], the figure is 533 ± 25.8 nM; as for `NS(=O)(=O)c1ccc(CCO)cc1` [Compound 17], 419 ± 17.7 nM.
On to `NS(=O)(=O)c1ccc(C(=O)O)cc1` [Compound 18], for which the affinity on PaCAγ1 [1], expressed as Ki, was 793 ± 46.2 nM.
The same measure, in the same setting: as for `Nc1nccc(Nc2ccc(S(N)(=O)=O)cc2)n1` [Compound 19], the figure is 1320 nM; as for `Nc1ccc(S(=O)(=O)Nc2nnc(S(N)(=O)=O)s2)cc1` [Compound 20], 244 ± 16.2 nM.
In the case of `NS(=O)(=O)c1ccc(CCNS(=O)(=O)c2ccc([N+](=O)[O-])cc2CO)cc1` [Compound 21], the Ki on PaCAγ1 [1] worked out at 564 ± 32.9 nM.
The molecule `Nc1ccc(S(=O)(=O)Nc2ccc(S(N)(=O)=O)cc2)cc1` [Compound 22] came in with an inhibition constant (Ki) at PaCAγ1 [1] of 386 ± 19.3 nM.
Same read-out and setting: as for `Nc1ccc(S(=O)(=O)NCc2ccc(S(N)(=O)=O)cc2)cc1` [Compound 23], the figure is 828 ± 51.7 nM; as for `Nc1ccc(S(=O)(=O)NCCc2ccc(S(N)(=O)=O)cc2)cc1` [Compound 24], 584 ± 22.2 nM; as for `NS(=O)(=O)c1cc(Cl)c(Cl)c(S(N)(=O)=O)c1` [DCP], 5680 nM.
For the molecule `NS(=O)(=O)NCCNc1nonc1/C(=N\c1ccc(F)c(Br)c1)NO` [EPC], the Ki turned out to be 5320 nM at PaCAγ1 [1], 8260 nM on hCA I (setting [4]) and 917 nM at hCA II. In addition, the “SI hCA I/PaCAγ1” value with PaCAγ1 [2] came to 1.6. Moreover, in the series on PaCAγ1 [2], the “SI hCA II/PaCAγ1” value was determined as 0.2.
As to `CCOc1ccc2nc(S(N)(=O)=O)sc2c1` [EZA, ethoxzolamide], the “effect on N. gonorrhoeae” value with Neisseria gonorrhoeae is listed as “long-lasting bacteriostatic effects”. In addition, the “effect on H. pylori growth” value in the series with Helicobacter pylori was “inhibited bacterial growth”.
For `NC(N)=Nc1nc(CSCC/C(N)=N/S(N)(=O)=O)cs1` [FAM], the Ki at PaCAγ1 [1] amounted to 2690 nM; on hCA I (setting [4]), 922 nM; at hCA II it was 58 nM. In addition, the “SI hCA I/PaCAγ1” value in the series on PaCAγ1 [2] is reported as 0.3. In addition, the “SI hCA II/PaCAγ1” value in the series with PaCAγ1 [2] was determined as 0.02.
Molecule `NS(=O)(=O)c1cc2c(cc1Cl)NCNS2(=O)=O` [HTC] gave an inhibition constant (Ki) on PaCAγ1 [1] of 6600 nM. In the series on PaCAγ1 [2], the “SI hCA I/PaCAγ1” value stood at 0.05 and the “SI hCA II/PaCAγ1” value was found to be 0.04.
`NS(=O)(=O)c1ccc(S(=O)(=O)Nc2cccc3c(Cl)c[nH]c23)cc1` [IND] returned a Ki at PaCAγ1 [1] of 453 ± 20.1 nM.
Same read-out and setting: for `CC(=O)/N=c1/sc(S(N)(=O)=O)nn1C` [MZA] the value was 68.4 ± 2.93 nM; for `O=C1NS(=O)(=O)c2ccccc21` [SAC], 13800 nM.
As to `NS(=O)(=O)c1ccc(N2CCCCS2(=O)=O)cc1` [SLT], on PaCAγ1 [1], the affinity corresponds to a Ki of 356 ± 23.8 nM.
On the same count and under the same terms, for `CC1(C)O[C@@H]2[C@@H](CO[C@@]3(COS(N)(=O)=O)OC(C)(C)O[C@@H]23)O1` [TPM] the value was > 100000 nM; for `Cc1onc(-c2ccccc2)c1-c1ccc(S(N)(=O)=O)cc1` [VLX], > 100000 nM.
Still for that read-out and setting: for `NS(=O)(=O)Cc1noc2ccccc12` [ZNS] the value was 4170 nM.

B1: PaCAγ1, γ-class carbonic anhydrase from Pseudomonas aeruginosa PAO1 (PA5540) (enzyme, UniProt Q9HT34 1-186, looked up)
chain: MIRKNPSGDLPVIDESAYVDKTAIICGKVIIQANVFVGPYAVIRADEVDADGGMQPIVIGANSNIQDGVVIHSKSGAAVTIGEHSSIAHRSIVHGPCEVGDRVFIGFNSVLFNCRVGDGCVVRHNAVVDGCDLPAGFYVPSTERIGPRTDLASMPRVSVSASEFSEDVARTNVDLVRGYKSLQNEF
notes: PaCAγ1, γ-class carbonic anhydrase encoded by PA5540 of P. aeruginosa PAO1; synthetic gene in pET21d; The initiator methionine is absent in the purified protein by LC-MS; source: E. coli BL21 (DE3), purified (His Trap HP, SEC Superdex 75); not shown: His6, C-terminal, kept
As a reminder, the stoichiometry N is the number of molecules, sites or subunits per partner or assembly. With B1, in series [3], the “stoichiometry N” value came to 3.

The record behind these values is publication PMC13261364 (International journal of biological macromolecules, 2025).
